# Test results published in PMC7913210 (Pharmaceutics, 2021).
# Legend:
# [1] = Parent-metabolite PK model (non-linear mixed-effect modeling) after SC LHA administration; format: in vivo, Sprague-Dawley rats
# Experimental: In addition, a combined transit model with first-order absorption was evaluated to better describe absorption phase. In the transit model, the optimal number of transit compartments (NTR) and the mean transit time (MTT) were estimated. The transit model introduced three parameters—Ktr, NTR, and MTT. Two of these three parameters were estimated. The relationship of these parameters is shown in the following equation: MTT= (NTR+1)/Ktr The inter-individual variability (IIV) was assessed using an exponential variability model as following equation: Pi=Ptv ×exp (ETA) where Pi represents the value of the individual PK parameter, Ptv is a typical value for P, and ETA indicates an interindividual random effect with the mean of zero and variance of ω^2. Residual random variability (ε) was calculated using a proportional error model for the three types of observations. Optimal model selection was guided by changes in diagnostic values including twice the negative log like (−2LL), Akaike information Criterion (AIC), Baysian Information Criteria (BIC), visual inspection of various diagnostic plots (goodness of fit plot), and precision of parameter estimates. The visual predictive check (VPC) and boot strap analysis was conducted for non-parametric evaluation of the model. Graphical diagnostics including basic goodness-of-fit plot and other accessory plots were used for single run-based diagnostics during model development. For the final model, the robustness and predictive performance were evaluated using multiple run-based diagnostics such as bootstrapping. A bootstrap procedure was conducted with a total of 1000 bootstrap-resampled datasets from the original dataset. Bootstrap results of median and 95% confidence intervals (CIs, […]) were compared with final parameter estimates. The 95% confidence intervals of parameters obtained from this step were compared with final parameter estimates.
# [2] = cited from earlier work
# [3] = SC LHA, rats, model estimate (fixed effect)
"Fm2, Fraction of the first metabolite converted to second metabolite ([1]; SC LHA, rats, MEGX to GX, model estimate)","CLm1/F, Apparent Metabolite (MEGX) clearance [1, 3]","MEGX converted into GX ([1]; model prediction, hyaluronic acid pre-incorporated lidocaine injected subcutaneously)","CLm2/F, Apparent Metabolite clearance ([1]; SC LHA, rats, second metabolite (GX), model estimate)",Compound,"Vmax, Maximum rate of reaction ([1]; SC LHA, rats, Michaelis-Menten elimination of lidocaine, model estimate)","MTT, Mean Transit Time [1, 3]","Ntr, Number of transit compartments [1, 3]",potency as anti-arrhythmic agent relative to lidocaine [2]
–,–,–,–,"CCN(CC)CC(=O)Nc1c(C)cccc1C [Lidocaine, reference compound]","423,962.94 nmol/h",0.64 h,4.97,–
0.47,14.94 L/h,about 47%,–,"CCNCC(=O)Nc1c(C)cccc1C [MEGX, monoethylglycylxylidide]",–,–,–,approximately 80%
–,–,–,1.09 L/h,"Cc1cccc(C)c1NC(=O)CN [GX, glycylxylidide]",–,–,–,~10%
